We go through seven molecules from US4623626A (priority 1982, dated 1986).

Molecules are shown by their SMILES. Entries after “also recorded” stand apart in the source; their conditions may differ. Read-outs that look alike come from different tables or passages of the source.

The target of test [1] is T1, L-glutamic acid oxidase (enzyme of the present invention) (Streptomyces sp, UniProt Q8L3C7).
T1 construct: isolated and purified the enzyme of the present invention as a single enzyme protein from such a cultured product of the microorganism; made in house; host or cells: natural producer, Streptomyces sp; (strain X-119-6 per the earlier reading); enzyme purified from the cultured product, not recombinant
T1 sequence (Q8L3C7 15-390 limits assumed): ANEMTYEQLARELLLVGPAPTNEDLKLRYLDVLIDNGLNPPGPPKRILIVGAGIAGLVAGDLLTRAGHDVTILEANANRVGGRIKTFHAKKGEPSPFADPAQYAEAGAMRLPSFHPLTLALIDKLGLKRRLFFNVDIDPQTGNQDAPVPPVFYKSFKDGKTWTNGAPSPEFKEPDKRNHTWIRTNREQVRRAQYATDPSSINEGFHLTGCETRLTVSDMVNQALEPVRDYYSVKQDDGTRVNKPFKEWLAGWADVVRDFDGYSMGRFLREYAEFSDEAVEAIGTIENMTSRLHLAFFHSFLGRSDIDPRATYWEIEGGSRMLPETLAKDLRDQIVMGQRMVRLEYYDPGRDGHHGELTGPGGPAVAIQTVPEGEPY
T1 sequence (Q8L3C7 391-520 limits assumed): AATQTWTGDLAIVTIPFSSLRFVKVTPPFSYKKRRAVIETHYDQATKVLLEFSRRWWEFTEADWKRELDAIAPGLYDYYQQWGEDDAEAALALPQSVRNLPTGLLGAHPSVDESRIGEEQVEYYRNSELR
T1 sequence (Q8L3C7 521-701 limits assumed): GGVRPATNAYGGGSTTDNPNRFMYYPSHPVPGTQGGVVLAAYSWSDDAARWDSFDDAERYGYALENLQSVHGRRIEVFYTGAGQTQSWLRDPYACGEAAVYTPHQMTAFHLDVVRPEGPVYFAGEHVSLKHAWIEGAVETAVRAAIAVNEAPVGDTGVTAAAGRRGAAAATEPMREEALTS
In words: Effects of additives on the enzyme activity (inhibition, activation). It counts as biochemical, Streptomyces sp. X-119-6. As to conditions: additive 1 mM. The protocol:
For examination of the effects of various additives on the enzyme activity of the present invention, enzymatic reaction was carried out in a reaction mixture (pH 7.4) containing each of the substances shown in Table 2 at a concentration of 1 mM.

For test [2], the system named is glutamic acid oxidase (known enzyme). As to conditions: cited from earlier work.
The target of test [3] is T1, L-glutamic acid oxidase (enzyme of the present invention). Briefly: Substrate specificity of the enzyme of the present invention, oxygen electrode method. It counts as biochemical, Streptomyces sp. X-119-6. The protocol: The concentration of each substrate was 10 mM, and the reactions were carried out at pH 7.4 (0.1 M potassium phosphate buffer) and pH 6.0 (0.1 M acetate buffer).

For test [4], the system named is glutamic acid oxidase (known enzyme). As to conditions: cited from earlier work; for activity of the known enzyme for the substrate: relative to L-glutamic acid; for relative activity of the known enzyme: velocity for L-glutamic acid given as 100.
The conditions of test [5]: pH of 6.0 or less or pH 10.0 or more.
Test [6] deals with T1, L-glutamic acid oxidase (enzyme of the present invention). Briefly: km values of the enzyme of the present invention. It counts as biochemical, Streptomyces sp. X-119-6. As to conditions: pH 7.4. The protocol:
That is, 1 ml of 0.1 M potassium phosphate buffer (pH 7.4) containing 10 mM sodium L-glutamate was charged into an oxygen electrode cell and 10 μl of an enzyme solution was added thereto to measure the oxygen consumption rate. One unit of enzyme was determined as the amount of enzyme which consumes 1μ mol of oxygen per minute at 30° C. in the absence of catalase (unit: hereinafter abbreviated as "U").

Take `[Ca+2].[Cl-].[Cl-]` [CaCl2]: in test [1] (reaction mixture pH 7.4, no addition = 100), the Relative activity is recorded as 100.0.

`[Cl][Cu][Cl]` [CuCl2, cupric chloride]: the “inhibition of the known enzyme” value in test [2] is “completely inhibited”. In addition, the “inhibition of the activity of the enzyme of the present invention” value in test [1] (pH 7.4) is reported as “not inhibited at all”.

In the case of `N[C@H](CCC(=O)O)C(=O)O` [D-Glutamic acid], the “activity of the enzyme of the present invention for the substrate” value (shortened to “activity of the enzyme … for the substrate”) in test [3] is on record as “substantially no activity”.

One may read the Km as the substrate concentration at which the rate is half of its maximum. In the case of `N[C@@H](CC(=O)O)C(=O)O` [L-Aspartic acid], the “activity of the known enzyme for the substrate” value in test [4] is reported as at most 0.1%. The “action of the enzyme of the present invention on the substrate” value in test [5] was “substantially no action”. Also, the Km in test [6] worked out at 29 mM. In addition, the “activity of the enzyme … for the substrate” value in test [3] (pH 6.0) is listed as “substantially no activity”.

As for `NC(=O)CC[C@H](N)C(=O)O` [L-Glutamine], in test [4], the “activity of the known enzyme for the substrate” value was 8.4% and the “relative activity of the known enzyme” value is recorded as 8.4. The “activity of the enzyme … for the substrate” value in test [3] is “substantially no activity”.

With `N[C@@H](Cc1c[nH]cn1)C(=O)O` [L-Histidine], in test [4], the “activity of the known enzyme for the substrate” value is listed as 6.8% and the “relative activity of the known enzyme” value is 6.8. In addition, the “activity of the enzyme … for the substrate” value in test [3] was “substantially no activity”.

On to `[Cu+2]` [copper ions], for which the “inhibition of the known enzyme” value in test [2] is “Substantially completely inhibited; also recorded: markedly inhibited”.
